One molecule from paper PMC6572135, “N-Methyl-D-glucamine–Calix[4]resorcinarene Conjugates: Self-Assembly and Biological Properties” (Molecules, 2019) can be followed below.

Where only a bound is given, the exact number is not on record here.

As usually defined, the IC50 is the concentration that gives 50% inhibition.

The nature of data set [1]: Zeta potential by electrophoretic light scattering. The class given is physicochemical. As to conditions: water solution, 25 °C; GCR-2 in the presence of two-fold excess MG; concentration not given. Here is the method: Formation of aggregates with increasing GCR-1 concentration was confirmed by the DLS method. In aqueous 1 mM GCR-1 solutions the formation of small particles with hydrodynamic diameter of 2.9 nm was observed (Figure 4a). This size is much more similar to that of a single molecule that to that of an aggregate. However, the bimodal distribution with peaks at 120 nm and 504 nm occurs for solution with 50 mM GCR-1. This could be attributed to the formation different stacked structures by head-to-head or head-to-tail interaction between GCR-1 molecules. […] Zeta-potential of GCR-1 aggregates obtained by electrophoretic light scattering in solution was −56.8 mV that correspond to sufficiently stable systems. Negative value was caused by dissociation of sulfonate groups of GCR-1 lower rim in aqueous medium. To confirm the morphology and dimension of the GCR-1 aggregates, TEM image was recorded (Figure 5a), where it was shown that GCR-1 molecules were assembled into non-well-defined large nanoparticles. The probable reason for such high polydispersity is multiple supramolecular interactions, such as Coulombic interactions between oppositely charged rims through head-to-tail self-assembly, hydrogen bonding between hydroxyl groups by head-to-head joining and π-π stacking between aromatic units of neighboring macrocycles (Figure 6a). […]

Data set [2] concerns C.albicans 855–653. Put plainly: Fungistatic activity (MIC), dilution method. The class given is cell-based. As to conditions: Candida albicans; C.albicans 855–653, fungistatic activity; read-out: Minimal Inhibiting Concentration (MIC). The protocol:
In vitro bacteriostatic and fungistatic activities of the macrocycles were evaluated against pathogenic representatives of Gram-positive bacteria (Staphylococcus aureus 209p, Bacillus cereus 8035), Gram-negative bacteria (Pseudomonas aeruginosa 9027, Escherichia coli F-50), and yeast (Trichophyton mentagrophytes var. gypseum 1773, Aspergillus niger BKMF-1119, Candida albicans 885–653). Minimal inhibitory concentrations (MICs) were estimated by conventional dilution methods for bacteria and fungi. The antibacterial and antifungal assays were performed in Hottinger broth (HiMe-dia Laboratories Pvt. Ltd. Mumbai, India) and Sabouraud dextrose broth (HiMedia Laboratories Pvt. Ltd.) (bacteria 3 × 10^5 cfu/mL and yeast 2 × 10^4 cfu/mL). The bactericidal and fungicidal activities were determined as described earlier. The tests were repeated three times.

The nature of data set [3]: Hemolytic activity. The class given is cell-based. As to conditions: human erythrocyte suspension, human erythrocytes, 37 °C. Here is the method: The hemolytic activity of the compounds was estimated by comparing the optical density of a solution containing a compound being tested and the blood with the optical density of the blood upon 100% hemolysis. A 10% suspension of human erythrocytes was used as an object of investigation; an erythrocytic mass with heparin was washed three times with a physiologic saline (0.9% NaCl) solution, centrifuged for 10 min at 800× g, and resuspended in the physiologic saline (0.9% NaCl) solution to a concentration of 10%. The concentrations of the compounds that corresponded to the MIC for the bacterial test strains were prepared in a physiologic saline (0.9% NaCl) solution (supplemented with 5% DMSO), and 4.5 mL of a compound at the corresponding dilution was added to 0.5 mL of a 10% suspension of erythrocytes. Samples were incubated for 1 h at 37 °C and centrifuged for 10 min at 2000× g. The release of hemoglobin was controlled by measuring the optical density of the supernatant on an AP-101 digital photoelectrocolorimeter (Apel, Kawaguchi, Japan) at 540 nm. Simultaneously, control samples were prepared: controls for zero hemolysis (blank): 0.5 mL of a 10% suspension of erythrocytes was added to a physiologic saline (0.9% NaCl) solution; 100% hemolysis: 0.5 mL of a 10% suspension of erythrocytes was added to 4.5 mL of distilled water. The experiments were repeated three times and data are presented as the mean ± standard deviation.

The subject of data set [4] is Chang liver cell line. Put plainly: Cell viability evaluation (Cytell Cell Imaging). The class given is cell-based. As to conditions: 50% inhibition of cell growth, human hepatocytes, read-out: IC50 on Chang Liver Cells Line. Here is the method:
Cell viability of human hepatocytes cells (Chang liver cell line from the N. F. Gamaleya Research Center of Epidemiology and Microbiology) toward macrocycles was determined by means of multifunctional system Cytell Cell Imaging (GE Healthcare, Issaquah, WA, USA) using application Cell Viability BioApp and Automated Imaging BioApp. The cells were dispersed on a 96-well plate at a concentration of 200,000 cells/mL and cultivated in CO2-incubator at 37 °C. Next, the culture medium was sampled in 24 h, and 150 μL of the studied dispersions was added to each well. The experiments were repeated three times. Intact cells cultivated simultaneously with the studied ones served as a reference. The fraction of the grown-up cells was expressed in % vs. reference cells. Degree of cell growth inhibition under the influence of testing agent was calculated by equation:N (%) = (1 − Exp/Control) × 100(1) where Exp is the quantity of uninhibited cells in sample studied, Control is the quantity of uninhibited cells in control sample. Then the IC50 (concentration which caused 50% cell growth inhibition) was determined from curve of cell cultural growth versus macrocycle concentration. The experiments were repeated three times and results are presented as the mean ± standard deviation.

As to `CC1c2cc(c(O)c(CN(C)C[C@@H](O)[C@H](O)[C@@H](O)[C@@H](O)CO)c2O)C(C)c2cc(c(O)c(CN(C)C[C@@H](O)[C@H](O)[C@@H](O)[C@@H](O)CO)c2O)C(C)c2cc(c(O)c(CN(C)C[C@@H](O)[C@H](O)[C@@H](O)[C@@H](O)CO)c2O)C(C)c2cc1c(O)c(CN(C)C[C@@H](O)[C@H](O)[C@@H](O)[C@@H](O)CO)c2O` (stereo partly drawn) [GCR-2, N-methyl-D-glucaminemethyl methylcalix[4]resorcinarene], the Zeta-potential of aggregates in data set [1] is −17.4 mV. The MIC in data set [2] is above 500 µM. In data set [3] (concentration 0.125 mM), this molecule showed a hemolysis at 1 h, 0.125 mM of 21.3 ± 1.7%. This molecule also registered a hemolysis at 1 h, 0.25 mM in data set [3] (concentration 0.25 mM) of 31.6 ± 2.7%. In data set [3] (concentration 0.50 mM), this molecule had a hemolysis at 1 h, 0.5 mM of 38.1 ± 3.4%. Also, the IC50 in data set [4] was above 100 µM.
